In ChEMBL document CHEMBL1201862, “PubChem BioAssay data set” (2004):
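Compound exposure: 48 hours, 5 concentrations, 96-well plates. Here, GI50 denotes the concentration required for 50% inhibition of growth.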 Activity calls are given as the source filed them. No stated cut-off is given here; in the data, active = GI50 up to about 1.1 µM and inactive = higher.

Columns and labels:
Test in all cases: NCI-60 cell line screen, 48 h
Hs-578T = system: Hs-578T
MDA-N = system: MDA-N
DLD-1 = system: DLD-1
KM-20L2 = system: KM-20L2
LXFL 529 = system: LXFL 529
XF498 = system: XF498
HOP-18 = system: HOP-18
SNB-78 = system: SNB-78

Row | SMILES | GI50 (Hs-578T) | GI50 (MDA-N) | other results
1 | NNC(=O)CC(=O)Nc1cccc(Cl)c1 | > 100 µM (inactive) | > 100 µM (inactive) | –
2 | C=C(Cl)[C@@](Cl)(CBr)CC[C@@H](Br)C(C)(C)Cl | 0.386 µM (active) | 0.255 µM (active) | –
3 | O=C1NN(Cc2ccccc2)C(=O)N2CCC[C@@H]12 | > 100 µM (inactive) | > 100 µM (inactive) | –
4 | Cc1cc(C)n2nc3nc(N)c(C#N)c(-c4ccccc4)c3c2n1 | > 100 µM (inactive) | > 100 µM (inactive) | –
5 | COc1ccc([C@@]2(O)c3c(ccc(O)c3OC)[C@H]2OC)c(OC)c1 | – | – | GI50 (DLD-1): 47.3 µM (inactive); GI50 (KM-20L2): 66.5 µM (inactive); GI50 (LXFL 529): 30.2 µM (inactive); GI50 (XF498): 41.7 µM (inactive)
6 | CCOC(=O)C(=O)/C(=C/N1C(=O)CC(=O)NC1=S)C(=O)OCC | 18.7 µM (inactive) | > 100 µM (inactive) | –
7 | Sc1nnc(Cc2ccc(Cl)cc2)[nH]1 | 16.4 µM (inactive) | > 100 µM (inactive) | –
8 | CCCCCC1CC=CC(=O)O1 (stereo not given) | 18 µM (inactive) | 6.15 µM (inactive) | –
9 | COC(=O)[C@@H]1C[C@H]([Se]c2ccccc2)CN1S(=O)(=O)c1ccc(C)cc1 | 60.7 µM (inactive) | > 100 µM (inactive) | –
10 | CC(C)NCCCNc1c2ccccc2nc2cccc([N+](=O)[O-])c12 | 0.0383 µM (active) | 0.0138 µM (active) | –
11 | Cc1cccc(C)c1NC(=O)C1=NC(=S)NC(c2ccccc2)C1c1nc2ccccc2s1 (stereo not given) | – | – | GI50 (DLD-1): > 100 µM (inactive); GI50 (HOP-18): > 100 µM (inactive); GI50 (KM-20L2): > 100 µM (inactive); GI50 (LXFL 529): > 100 µM (inactive); GI50 (SNB-78): > 100 µM (inactive); GI50 (XF498): > 100 µM (inactive)
12 | CC(=O)O[C@H]1CC[C@@]2(C)C(=CC[C@@H]3[C@@H]2CC[C@]2(C)C(=N/O)/C(=C/c4ccc([N+](=O)[O-])cc4)C[C@@H]32)C1 | 2.39 µM (inactive) | 3.37 µM (inactive) | –
13 | O=C(/C=C/c1cccc([N+](=O)[O-])c1)N1CCN(CCOC(c2ccccc2)c2ccccc2)CC1 | – | 37.3 µM (inactive) | –
14 | CCOC(=O)N1c2c(c3ccccc3n2C(=O)OCC)C(=O)C(OC)N1C(=O)OCC (stereo not given) | 22.5 µM (inactive) | 33.2 µM (inactive) | –
15 | Cc1cc(C2CC(O)C(CO)O2)c(F)cc1F (stereo not given) | – | > 100 µM (inactive) | –
16 | CC/C=C\C/C=C\C/C=C\CCCCCCCC(=O)OC(COC(=O)CCCCCCCCCCCCCCCCC)COC1OC(CO)C(O)C(O)C1O (stereo not given) | 2.59 µM (inactive) | > 25 µM (inactive) | –
17 | N#CCc1cccc(CC#N)c1Br | – | – | GI50 (DLD-1): > 100 µM (inactive); GI50 (KM-20L2): > 100 µM (inactive); GI50 (LXFL 529): > 100 µM (inactive); GI50 (SNB-78): > 100 µM (inactive); GI50 (XF498): > 100 µM (inactive)

Row | SMILES | GI50 (Hs-578T) | GI50 (MDA-N) | other results
18 | CCN(CC)c1ccc(/C=C(\C#N)c2nc(N)nc(N3N=C(C)CC3(C)C)n2)cc1 | 2.4 µM (inactive) | 24.1 µM (inactive) | –
19 | Cc1c2cccc(Sc3ccccc3)c2c2c3c(cccc13)[S+](c1ccccc1)C2 (stereo not given) | 2.74 µM (inactive) | 2.28 µM (inactive) | –
20 | COc1cc([C@@H]2c3cc4c(cc3[C@@H](NCc3cccc(F)c3)C3COC(=O)[C@@H]32)OCO4)cc(OC)c1O (stereo not given in full) | – | – | GI50 (DLD-1): 9.71 µM (inactive); GI50 (HOP-18): > 65 µM (inactive); GI50 (KM-20L2): 6.64 µM (inactive); GI50 (LXFL 529): 13.4 µM (inactive); GI50 (SNB-78): 15.3 µM (inactive)
21 | Cc1nc(N)c(N2CCN(S(=O)(=O)N(Cc3ccccc3)Cc3ccccc3)CC2)c(O)n1 | 33.3 µM (inactive) | 85.1 µM (inactive) | –
22 | O=C1CNc2cc(N3CCN(c4cccc(C(F)(F)F)c4)CC3)ccc2N1 | 42.1 µM (inactive) | 84.5 µM (inactive) | –
23 | O=c1c2c(-c3ccccc3)c3ccccc3nc2cnn1-c1ccccc1 | – | – | GI50 (HOP-18): > 100 µM (inactive); GI50 (KM-20L2): > 100 µM (inactive); GI50 (LXFL 529): > 100 µM (inactive); GI50 (SNB-78): > 100 µM (inactive)
24 | COc1ccc(CC2C3=C(CCCC3)CCN2C)cc1 (stereo not given) | 77.6 µM (inactive) | > 100 µM (inactive) | –
25 | O=S(=O)(O)CCCc1cccc2ccccc12 | > 100 µM (inactive) | > 100 µM (inactive) | –
26 | C[C@@H](CC(O)C1OC1(C)C)[C@@H]1CC[C@]2(C)C3=CCC4C(C)(C)C(O)CC[C@]4(C)C3CCC12C (stereo not given in full) | – | – | GI50 (DLD-1): 16.6 µM (inactive); GI50 (HOP-18): 20 µM (inactive); GI50 (KM-20L2): 15.4 µM (inactive); GI50 (LXFL 529): 12.3 µM (inactive); GI50 (XF498): 20.8 µM (inactive)
27 | CCOC(=O)c1cnc2oc3ccc(O)cc3c2c1C | 35.2 µM (inactive) | > 100 µM (inactive) | –
28 | CNc1nc2c(C)ccc3nc(N(C)C)nc-3c2n1C | > 10 µM (inactive) | > 10 µM (inactive) | –
29 | O=C1O[C@H]2[C@@H]3OC(=O)c4cc(O)c(O)c(O)c4-c4c(cc(O)c(O)c4O)C(=O)OC[C@H]2O[C@@H](OC(=O)c2cc(O)c(O)c(O)c2)[C@@H]3OC(=O)c2cc(O)c(O)c3c2[C@@H]2C1=CC(=O)C(O)(O)C2(O)O3 (stereo not given in full) | 40.4 µM (inactive) | 16 µM (inactive) | –
30 | N#Cc1nc2ccccc2nc1N1CCN(c2ccc([N+](=O)[O-])cc2)CC1 | > 100 µM (inactive) | > 100 µM (inactive) | –
31 | COc1cc(-c2cc(=O)c3c(O)c(OC)c(OC)c(OC)c3o2)cc(OC)c1OC [GARDENIN] | 3.15 µM (inactive) | > 92.7 µM (inactive) | –
32 | CC(C)=CCc1c2c(c3occ(-c4ccc(O)c(O)c4)c(=O)c3c1O)C=CC(C)(C)O2 [POMIFERIN] | 1.22 µM (inactive) | 1.7 µM (inactive) | –
33 | C[C@H](CCC(=O)O)[C@H]1CC[C@H]2[C@@H]3[C@@H](O)C[C@@H]4C[C@H](O)CC[C@]4(C)[C@H]3CC[C@]12C [URSODIOL] | – | > 100 µM (inactive) | –
